Laboratory results taken from patent US8003783B2, “17B-hydroxysteroid dehydrogenase inhibitors” (Sterix Limited, priority 2004, dated 2011).
Where two headings read alike, the source gives them in different places.

Experiments:
17β-HSD1 = biological target: T1, 17β-HSD1 (Homo sapiens, UniProt P14061); test: 17β-HSD Type I activity in T-47D cells (E1→E2); assay type: cell-based; conditions: for inhibition at 10 µM: T47D
T1 construct: was measured in intact cell monolayers of T47D and MDA-MB-231 breast cancer cells respectively; endogenous in cells; host or cells: T-47D human breast cancer cells
T1 sequence (P14061 1-328): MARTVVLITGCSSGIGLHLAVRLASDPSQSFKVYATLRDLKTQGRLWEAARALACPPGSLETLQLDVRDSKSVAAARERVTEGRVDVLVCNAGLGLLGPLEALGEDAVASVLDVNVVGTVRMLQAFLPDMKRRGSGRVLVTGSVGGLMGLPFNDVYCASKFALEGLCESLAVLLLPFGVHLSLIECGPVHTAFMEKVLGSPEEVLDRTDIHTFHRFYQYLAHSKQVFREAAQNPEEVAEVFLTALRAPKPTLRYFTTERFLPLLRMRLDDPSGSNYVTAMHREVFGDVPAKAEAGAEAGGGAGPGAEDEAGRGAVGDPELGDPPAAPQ

17β-HSD2 = biological target: T2, 17β-HSD2 (Homo sapiens, UniProt P37059); test: 17β-HSD Type II activity in MDA-MB-231 cells (E2→E1); assay type: cell-based
T2 construct: was measured in intact cell monolayers of T47D and MDA-MB-231 breast cancer cells respectively; endogenous in cells; host or cells: MDA-MB-231 human breast cancer cells
T2 sequence (P37059 1-387): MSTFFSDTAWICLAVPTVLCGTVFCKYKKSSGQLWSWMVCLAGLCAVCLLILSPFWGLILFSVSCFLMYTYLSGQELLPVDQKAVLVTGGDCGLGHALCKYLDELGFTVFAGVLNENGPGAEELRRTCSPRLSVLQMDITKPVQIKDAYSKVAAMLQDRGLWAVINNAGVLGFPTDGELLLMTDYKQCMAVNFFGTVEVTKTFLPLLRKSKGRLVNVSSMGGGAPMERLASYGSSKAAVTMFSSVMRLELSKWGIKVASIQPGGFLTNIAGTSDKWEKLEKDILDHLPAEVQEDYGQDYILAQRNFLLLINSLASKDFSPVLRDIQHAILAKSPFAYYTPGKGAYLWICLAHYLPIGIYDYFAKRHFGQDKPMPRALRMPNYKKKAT

[1] = 10 μM, T-47D cells, E1→E2, read-out: % inhibition of 17β-HSD1 @ 10 μM
[2] = 10 μM, MDA-MB-231 cells, E2→E1, read-out: % inhibition of 17β-HSD2 @ 10 μM
[3] = T-47D cells, E1→E2, read-out: IC50 (17β-HSD1)
[4] = read-out: % inhibition of 17β-HSD1 @ 10 μM, 10 μM, T-47D cells, E1→E2
[5] = MDA-MB-231, read-out: % inhibition of 17β-HSD2 @ 10 μM

| SMILES | inhibition at 10 µM (17β-HSD1; [1]) | inhibition at 10 µM (17β-HSD2; [2]) | further results |
| --- | --- | --- | --- |
| CCOC(=O)/C(O)=C1\CC2C3CCc4cc(O)ccc4C3CC[C@]2(C)C1=O (stereo partly shown) [compound 330] | 72% | 7% | % inhibition of 17β-HSD1 @ 10 μM (17β-HSD1; 10 μM, T-47D cells, E1→E2): 77% |
| C[C@H](NC(=O)CC1CC2C3CCc4cc(O)ccc4C3CC[C@]2(C)C1=O)c1ccccc1 (stereo partly shown) [compound 690] | 83% | 10% |  |
| CCN(C)C(=O)CC1CC2C3CCc4cc(O)ccc4C3CC[C@]2(C)[C@H]1O (stereo partly shown) [compound 771] | 78% | 16% |  |
| CC(C)NC(=O)CC1CC2C3CCc4cc(O)ccc4C3CC[C@]2(C)C1=O (stereo partly shown) [compound 743] | 75% | 6% |  |
| CCNC(=O)CC1CC2C3CCc4cc(O)ccc4C3CC[C@]2(C)C1=O (stereo partly shown) [compound 744] | 84% | 2% |  |
| C[C@]12CCC3c4ccc(OS(N)(=O)=O)cc4CCC3C1C/C(=C\c1ccccc1)[C@@H]2O (stereo partly shown) [compound 315] | 4% | 1% |  |
| CC(C)(C)/C=C1\CC2C3CCc4cc(O)ccc4C3CC[C@]2(C)[C@H]1O (stereo partly shown) [compound 948] | 84% | 27% |  |
| C[C@]12CCC3c4ccc(O)cc4C(=O)CC3C1CCC2=O (stereo partly shown) [compound 416] | 98% | 8% | IC50 (17β-HSD1; [3]): 340 nM |
| C[C@]12CCC3c4ccc(O)cc4CCC3C1C/C(=C(/O)C(F)(F)F)C2=O (stereo partly shown) [compound 946] |  |  | % inhibition of 17β-HSD1 @ 10 μM (17β-HSD1; 10 μM, T-47D cells, E1→E2): 87%; inhibition at 10 µM (17β-HSD1; [4]): 69%; inhibition at 10 µM (17β-HSD2; [5]): -1.5% |
| C[C@]12CCC3c4ccc(O)cc4CCC3C1C/C(=C\c1ccncc1)[C@@H]2O (stereo partly shown) [compound 324] | 81% | 3% | IC50 (17β-HSD1): 4100 nM; % inhibition of 17β-HSD1 @ 10 μM (17β-HSD1; 10 μM, T-47D cells, E1→E2): 72% |
| C[C@]12CCC3c4ccc(O)cc4CCC3C1CC(C(=O)O)[C@@H]2O (stereo partly shown) [compound 611] | 39% | 4% |  |
| C[C@]12CCC3c4ccc(O)cc4CCC3C1Cc1c2n[nH]c1C(=O)NCc1ccccn1 (stereo partly shown) [compound 915] |  |  | inhibition at 10 µM (17β-HSD1; [4]): 93%; IC50 (17β-HSD1; [3]): 880 nM; inhibition at 10 µM (17β-HSD2; [5]): 9% |
| C[C@]12CCC3c4ccc(O)cc4CCC3C1C/C(=N/O)C2=O (stereo partly shown) [compound 327] | 96% | 5% | % inhibition of 17β-HSD1 @ 10 μM (17β-HSD1; 10 μM, T-47D cells, E1→E2): 94%; IC50 (17β-HSD1; [3]): 1100 nM |
| CC(C)NC(=O)CC1CC2C3CCc4cc(O)ccc4C3CC[C@]2(C)[C@H]1O (stereo partly shown) [compound 773] | 67% | 11% |  |
| CCOCC1CC2C3CCc4cc(O)ccc4C3CC[C@]2(C)C1=O (stereo partly shown) [compound 664] | 92% | 19% | IC50 (17β-HSD1): 320 nM |
| CCOC(=O)CC1CC2C3CCc4cc(O)ccc4C3CC[C@]2(C)[C@H]1O (stereo partly shown) [compound 574] | 67% | 18% |  |
| CCN(CC)C(=O)CC1CC2C3CCc4cc(O)ccc4C3CC[C@]2(C)[C@H]1O (stereo partly shown) [compound 772] | 79% | 14% |  |
| CCN(C)C(=O)c1[nH]nc2c1CC1C3CCc4cc(O)ccc4C3CC[C@]21C (stereo partly shown) [compound 894] | 88% | 6% |  |
| C[C@]12CCC3c4ccc(O)cc4CCC3C1C/C(=C\c1ccccn1)C2=O (stereo partly shown) [compound 319] | 23% | 16% |  |
| CC(C)Cn1cc2c(n1)[C@@]1(C)CCC3c4ccc(O)cc4CCC3C1C2 (stereo partly shown) [compound 812] |  |  | inhibition at 10 µM (17β-HSD1; [4]): 77%; inhibition at 10 µM (17β-HSD2; [5]): 61% |
| CCOC(=O)c1[nH]nc2c1CC1C3CCc4cc(O)ccc4C3CC[C@]21C (stereo partly shown) [compound 782] | 94% | 7% | IC50 (17β-HSD1; [3]): 1850 nM |
| C[C@]12CCC3c4ccc(O)cc4CCC3C1CC(CC(=O)NCc1ccco1)[C@@H]2O (stereo partly shown) [compound 667] | 35% | 14% |  |
| C[C@]12CCC3c4ccc(O)cc4CCC3C1C/C(=C\c1ccncc1)C2=O (stereo partly shown) [compound 321] | 34% | 25% |  |
| C[C@]12CCC3c4ccc(OS(N)(=O)=O)cc4CCC3C1CC(C#N)C2=O (stereo partly shown) [compound 209] | 71% | 18% | % inhibition of 17β-HSD1 @ 10 μM (17β-HSD1; 10 μM, T-47D cells, E1→E2): 73%; IC50 (17β-HSD1; [3]): 10000 nM |
| C[C@]12CCC3c4ccc(O)cc4CCC3C1Cc1c2n[nH]c1C(=O)O (stereo partly shown) [compound 783] | 32% | -6% |  |

| SMILES | inhibition at 10 µM (17β-HSD1; [1]) | inhibition at 10 µM (17β-HSD2; [2]) | further results |
| --- | --- | --- | --- |
| C[C@]12CCC3c4ccc(O)cc4CCC3C1CC(CC(=O)Nc1nccs1)C2=O (stereo partly shown) [compound 746] | 30% | 16% |  |
| C[C@]12CCC3c4ccc(O)cc4C(=O)CC3C1C/C(=C/O)C2=O (stereo partly shown) [compound 784] | 97% | -7% | IC50 (17β-HSD1; [3]): 700 nM |
| COc1cc(/C=C2\CC3C4CCc5cc(OS(N)(=O)=O)ccc5C4CC[C@]3(C)C2=O)cc(OC)c1OC (stereo partly shown) [compound 692] | 4% | 17% |  |
| C[C@]12CCC3c4ccc(O)cc4CCC3C1CC1C(C(F)(F)F)=NNC12O (stereo partly shown) [compound 947] | 83% | 2% |  |
| C[C@]12CCC3c4ccc(O)cc4/C(=N\O)CC3C1CC/C2=N\O (stereo partly shown) [compound 454] |  | 27% | IC50 (17β-HSD1; [3]): 1900 nM |
| C[C@]12CCC3c4ccc(O)cc4CCC3C1CC(CC(=O)NCc1cccnc1)C2=O (stereo partly shown) [compound 670] | 95% | 26% | IC50 (17β-HSD1; [3]): 33 nM |
| CNC(=O)CC1CC2C3CCc4cc(O)ccc4C3CC[C@]2(C)C1=O (stereo partly shown) [compound 745] | 90% | 3.5% | IC50 (17β-HSD1; [3]): 1500 nM |
| CC(C)/C=C1\CC2C3CCc4cc(O)ccc4C3CC[C@]2(C)[C@H]1O (stereo partly shown) [compound 614] | 68% | 7% |  |
| C[C@]12CCC3c4ccc(O)cc4CCC3C1CC(CC(=O)O)[C@@H]2O (stereo partly shown) [compound 603] | 58% | 0% |  |
| COCCNC(=O)CC1CC2C3CCc4cc(O)ccc4C3CC[C@]2(C)C1=O (stereo partly shown) [compound 689] | 53% | 8% |  |
| CCC(O)C1CC2C3CCc4cc(O)ccc4C3CC[C@]2(C)C1=O (stereo partly shown) [compound 665] | 80% | -18% |  |
| CN1CCN(C(=O)C2CC3C4CCc5cc(O)ccc5C4CC[C@]3(C)[C@H]2O)CC1 (stereo partly shown) [compound 799] | 74% | -16% |  |
| CCO/C=C1/CC2C3CC(=O)c4cc(O)ccc4C3CC[C@]2(C)C1=O (stereo partly shown) [compound 749] | 85% | 8% |  |
| C[C@]12CCC3c4ccc(O)cc4CCC3C1CC(C(=O)O)C2=O (stereo partly shown) [compound 610] | 95% | 1% | IC50 (17β-HSD1; [3]): 940 nM |
| COc1cc(/C=C2\CC3C4CCc5cc(O)ccc5C4CC[C@]3(C)C2=O)cc(OC)c1OC (stereo partly shown) [compound 328] | 24% | -12% |  |
| C[C@]12CCC3c4ccc(O)cc4CCC3C1Cc1c2n[nH]c1CO (stereo partly shown) [compound 804] | 94% | -1% | IC50 (17β-HSD1; [3]): 950 nM |
| CCN(C)C(=O)CC1CC2C3CCc4cc(O)ccc4C3CC[C@]2(C)C1=O (stereo partly shown) [compound 741] | 79% | 5% |  |
| CNC(=O)CC1CC2C3CCc4cc(O)ccc4C3CC[C@]2(C)[C@H]1O (stereo partly shown) [compound 775] | 63% | 11% |  |
| COC(=O)Cn1ncc2c1[C@@]1(C)CCC3c4ccc(O)cc4CCC3C1C2 (stereo partly shown) [compound 807] | 79% | 30% |  |
| Cc1cnc(CNC(=O)C2CC3C4CCc5cc(O)ccc5C4CC[C@]3(C)[C@H]2O)cn1 (stereo partly shown) [compound 803] | 85% | -18% |  |
| Cn1ncc2c1[C@@]1(C)CCC3c4ccc(O)cc4CCC3C1C2 (stereo partly shown) [compound 786] |  |  | inhibition at 10 µM (17β-HSD1; [4]): 43%; inhibition at 10 µM (17β-HSD2; [5]): 32% |
| CCc1cc2c(cc1OS(N)(=O)=O)CCC1C2CC[C@]2(C)C(=O)C(CC(=O)NCc3cccnc3)CC12 (stereo partly shown) [compound 1039] |  | -4% | IC50 (17β-HSD1; [3]): 5100 nM |
| C[C@]12CCC3c4ccc(O)cc4CCC3C1Cc1c2n[nH]c1C(=O)NCC1CCCO1 (stereo partly shown) [compound 892] |  |  | inhibition at 10 µM (17β-HSD1; [4]): 87%; inhibition at 10 µM (17β-HSD2; [5]): -4% |
| Cn1cccc1CNC(=O)C1CC2C3CCc4cc(O)ccc4C3CC[C@]2(C)[C@H]1O (stereo partly shown) [compound 802] | 86% | -7% |  |
